Reference: patent publication US20250170105A1, “ASSOCIATION WITH ANTIBIOTIC ACTIVITY, PHARMACEUTICAL COMPOSITIONS CONTAINING IT AND THEIR USE IN THE TREATMENT OF INFECTIONS” (VETAGRO INTERNATIONAL S.R.L., priority 2022, published 2025)
Where two headings read alike, the source gives them in different places. Values belong to the compound of their own block, whether it stands above or below them.

Assays:
Format in all cases: cell-based
[1] = system: Escherichia Coli K88 95; test: Individual tests, microdilution MIC; settings: Escherichia coli
Method: (§1) Strains were stored at −80° C. in appropriate media with glycerol, thawed and cultured according to conventional practices.
(§2) The ABs shown in Tables 2 and 3 below, all obtained from Aplha Aesar, were tested. The OAs used are shown in Tables 2 and 3 below, all obtained from Merck. The stock solutions were prepared appropriately and in appropriate way and media for the different strains and could contain 3.5% ethanol to increase solubility.
(§3) The tests were conducted using the microdilution method in a 96-well plate to be microtitered with the medium and culture conditions appropriate for the strains. Bacterial strains (10^5-10^6 CFU/ml) were incubated with the compounds to be tested, while control strains, when necessary, were grown in media containing 3.5% ethanol to exclude an inhibitory effect of any ethanol present in the stock solutions. After incubation, MIC was defined as the lowest concentration resulting in zero absorbance at 630 nm, recorded with Varioskan® LUX Multimode Microplat Reader (Thermo Fisher Scientific). For each test, the percentage of inhibition (%) was calculated with respect to the relative control.
(§4) ABs were tested in the range 64-0.13 ppm, OAs in the range […] and NICs in the range 7.5-0.06 nM.

[2] = system: Streptococcus suis 701; test: Individual tests, microdilution MIC
Method: as §1, §2, §3, §4

[3] = system: Escherichia coli K88 97; test: Individual tests, microdilution MIC; settings: Escherichia coli
Method: as §1, §2, §3, §4

[4] = system: Streptococcus suis 702; test: Individual tests, microdilution MIC
Method: as §1, §2, §3, §4

[5] = system: Escherichia Coli K88 95; test: Combination test, checkerboard, % inhibition; settings: E. coli 95
Method: as §1, §3
(§5) After phase 1, the strains were tested with associations at sub-effective doses of AB and OA or NIC in a 2×2 checkerboard model. Specifically, two sub-effective doses of AB were associated with two sub-effective doses of OA or NIC (half and one-quarter of MICs) as shown in FIG. 1.
(§6) The % indicate the percentage of inhibition (compounds alone and combinations).
(§7) Tables 4 to 7 show the % of inhibition of the components of the associations alone, at the effective concentrations shown in Tables 2 and 3, and at the sub-effective concentrations (half and one-quarter of MICs), and the % of inhibition of the associations.

[6] = system: Streptococcus suis 701; test: Combination test, checkerboard, % inhibition; settings: S. suis 701
Method: as §1, §3, §5, §6, §7

[7] = system: Escherichia coli K88 97; test: Combination test, checkerboard, % inhibition; settings: E. coli 97
Method: as §1, §3, §5, §6, §7

[8] = system: Streptococcus suis 702; test: Combination test, checkerboard, % inhibition; settings: S. suis 702
Method: as §1, §3, §5, §6, §7

[9] = COLIK8895, E. coli 95, read-out: MIC values
[10] = Streptococcus suis, S. suis 701, read-out: MIC values
[11] = K8897, E. coli 97, read-out: MIC values
[12] = Streptococcus suis, S. suis 702, read-out: MIC values
[13] = COLIK8895, read-out: MIC values

MIC [1, 9]: > 64 µg/mL | MIC [2, 10]: 0.5 µg/mL | MIC [3, 11]: > 64 µg/mL | MIC [4, 12]: 0.5 µg/mL
SMILES: CC1(C)S[C@@H]2[C@H](NC(=O)[C@H](N)c3ccc(O)cc3)C(=O)N2[C@H]1C(=O)O [Amoxicillin]

MIC [2, 10]: 0.25 µg/mL | MIC [4, 12]: 0.25 µg/mL
SMILES: CC1(C)S[C@@H]2[C@H](NC(=O)[C@H](N)c3ccccc3)C(=O)N2[C@H]1C(=O)O [Ampicillin]

SMILES: O=C(O)c1ccccc1 [Benzoic Acid, benzoic acid]
% inhibition ([5]; BEN 12.5 mM alone): 63% | % inhibition ([5]; BEN 25 mM alone): 90% | % inhibition ([6]; BEN 12.5 mM alone): 22% | % inhibition ([6]; BEN 25 mM alone): 51% | % inhibition ([7]; BEN 12.5 mM alone): 79% | % inhibition ([7]; BEN 25 mM alone): 97% | % inhibition ([8]; BEN 6.25 mM alone): 21% | % inhibition ([8]; BEN 12.5 mM alone): 39% | MIC [1, 13]: 50 mM | MIC ([2]; Streptococcus suis, 701, read-out: MIC values): 50 mM | MIC ([3]; K8897, read-out: MIC values): 50 mM | MIC ([4]; Streptococcus suis, 702, read-out: MIC values): 25 mM

MIC [1, 9]: 1 µg/mL | MIC [2, 10]: 0.5 µg/mL | MIC [3, 11]: 2 µg/mL | MIC [4, 12]: 0.5 µg/mL
SMILES: CO/N=C(\C(=O)N[C@@H]1C(=O)N2C(C(=O)O)=C(CSC(=O)c3ccco3)CS[C@H]12)c1csc(N)n1 [Ceftiofur]

MIC [1, 9]: > 100 mM | MIC [2, 10]: 50 mM | MIC [3, 11]: > 100 mM | MIC [4, 12]: 25 mM
SMILES: O=C(O)CC(O)(CC(=O)O)C(=O)O [Citric acid, citric acid]
% inhibition ([6]; CIT 12.5 mM alone): 18% | % inhibition ([6]; CIT 25 mM alone): 36% | % inhibition ([8]; CIT 6.25 mM alone): 12% | % inhibition ([8]; CIT 12.5 mM alone): 43%

MIC [2, 10]: 16 µg/mL | MIC [4, 12]: 0.5 µg/mL
SMILES: C[C@H]1c2cccc(O)c2C(=O)C2=C(O)[C@]3(O)C(=O)C(C(N)=O)=C(O)[C@@H](N(C)C)[C@@H]3[C@@H](O)[C@@H]21 [Doxycycline]

MIC [1, 9]: 2 µg/mL | MIC [2, 10]: 0.5 µg/mL | MIC [3, 11]: 2 µg/mL | MIC [4, 12]: 0.5 µg/mL
SMILES: CCN1CCN(c2cc3c(cc2F)c(=O)c(C(=O)O)cn3C2CC2)CC1 [Enrofloxacin]

SMILES: C=CCc1ccc(O)c(OC)c1 [Eugenolo, eugenol]
% inhibition ([5]; EUG 0.94 mM alone): 31% | % inhibition ([5]; EUG 1.87 mM alone): 44% | % inhibition ([6]; EUG 0.94 mM alone): 6% | % inhibition ([6]; EUG 1.87 mM alone): 27% | % inhibition ([7]; EUG 0.94 mM alone): 26% | % inhibition ([7]; EUG 1.87 mM alone): 34% | % inhibition ([8]; EUG 0.94 mM alone): 9% | % inhibition ([8]; EUG 1.87 mM alone): 12% | MIC [1, 9]: 3.75 mM | MIC [2, 10]: 3.75 mM | MIC [3, 11]: 3.75 mM | MIC [4, 12]: 3.75 mM

MIC [1, 9]: 16 µg/mL | MIC [2, 10]: 2 µg/mL | MIC [3, 11]: > 64 µg/mL | MIC [4, 12]: 2 µg/mL
SMILES: CS(=O)(=O)c1ccc([C@@H](O)[C@@H](CF)NC(=O)C(Cl)Cl)cc1 [Florfenicol]

SMILES: CCCCCC(=O)O [Hexanoic acid, hexanoic acid]
% inhibition ([5]; HEX 12.5 mM alone): 76% | % inhibition ([5]; HEX 25 mM alone): 83% | % inhibition ([7]; HEX 12.5 mM alone): 65% | % inhibition ([7]; HEX 25 mM alone): 83% | MIC [1, 13]: 50 mM | MIC ([3]; K8897, read-out: MIC values): 50 mM
